In one assay the test system is H3K27me3 mark. As to the kind of experiment: H3K27me3 Alpha Hela Assay (AlphaLISA). Format: cell-based. The conditions noted are these: Hela cells, read-out: EZH2 Cell H3K27me3 Alpha HeLa (EC50 K27me3). The procedure: EC50 Measurements for Inhibitors in HeLa Cell Assays
H3K27me3 Alpha Hela Assay (AlphaLISA). Ten different doses of each test compound (in a series of 3-fold dilutions) were plated in duplicate 384-well tissue culture treated plates (Catalog #781080; Greiner Bio One; Monroe, N.C.). Hela cells grown in culture were trypsinized and counted using a Countess® cell counter (Catalog # C10281; Life Technologies, Grand Island, N.Y.). Cell were diluted to 67,000 cells per mL in 10% DMEM (Catalog #10569-010 Life Technologies, Grand Island, N.Y.) and 15 μL (1,000 cells) were plated into each well using the Biotek MicroFlo™ Select Dispenser (BioTek Instruments, Inc. Vermont, USA),) of the 384-well plate. Plates were incubated at 37° C./5% CO2 for 72 hrs. One of the duplicate plates was processed for HeLa assay and the other for viability.
To the plate processed for AlphaLISA was added 5 μL per well Cell-Histone Lysis buffer (1×) (Catalog # AL009F1 Perkin Elmer; Waltham, Mass.) and the plate was incubated at RT for 30 minutes on a plate shaker with low speed (Model#4625-Q Thermo Scientific; Waltham, Mass.). Then, 10 μL per well Histone Extraction buffer (catalog # AL009F2; Perkin Elmer; Waltham, Mass.) was added and the plate further incubated at RT for 20 min on plate shaker with low speed. To each well was then added 10 μL per well of a 5× mix of anti-K27me3 acceptor beads plus Biotinylated anti-Histone H3 (C-ter) Antibody (diluted to 3 nM final) (Catalog #AL118 Perkin Elmer; Waltham, Mass.). Dilution of the acceptor beads and then anti-Histone H3 was with 1× Histone Detection buffer (Catalog # AL009F3 Perkin Elmer; Waltham, Mass.) which was produced diluted from the 10× stock provided. The plate was sealed with an aluminum plate sealer and incubated at 23° C. for 60 min. We then added 10 μL 5× solution of Streptavidin Donor beads (Catalog #6760002 Perkin Elmer; Waltham, Mass.) (20 μg/mL final in 1× Histone Detection Buffer), sealed the plate with Aluminum plate sealer and incubated at 23° C. for 30 min. The plates were then read using an EnVision-Alpha Reader (model #2104 Perkin Elmer; Waltham, Mass.).
Data from both assays was analyzed using Assay Assistant (Constellation Pharmaceuticals In-house product) and Activity Base (IDBS Ltd, Surrey, UK) template. Data files were imported to Assay Assistant and assay conditions were specified. A unique Analysis ID was created and the data files exported to Activity Base. An analysis template was created on Activity Base to measure dose-dependent inhibition of H3K27me3 mark and cell viability respectively. Readout of DMSO wells were used to normalize the data. Resulting curves were fitted using Activity base software Model 205 (IDBS Ltd, Surrey, UK). The data was checked for quality, validated and integrated in excel format using SARview (IDBS Ltd, Surrey, UK).

The target of another assay is T1, PRC2 containing wt EZH2 (Homo sapiens, UniProt Q15910).
T1 construct: made in house
T1 sequence (Q15910 whole entry): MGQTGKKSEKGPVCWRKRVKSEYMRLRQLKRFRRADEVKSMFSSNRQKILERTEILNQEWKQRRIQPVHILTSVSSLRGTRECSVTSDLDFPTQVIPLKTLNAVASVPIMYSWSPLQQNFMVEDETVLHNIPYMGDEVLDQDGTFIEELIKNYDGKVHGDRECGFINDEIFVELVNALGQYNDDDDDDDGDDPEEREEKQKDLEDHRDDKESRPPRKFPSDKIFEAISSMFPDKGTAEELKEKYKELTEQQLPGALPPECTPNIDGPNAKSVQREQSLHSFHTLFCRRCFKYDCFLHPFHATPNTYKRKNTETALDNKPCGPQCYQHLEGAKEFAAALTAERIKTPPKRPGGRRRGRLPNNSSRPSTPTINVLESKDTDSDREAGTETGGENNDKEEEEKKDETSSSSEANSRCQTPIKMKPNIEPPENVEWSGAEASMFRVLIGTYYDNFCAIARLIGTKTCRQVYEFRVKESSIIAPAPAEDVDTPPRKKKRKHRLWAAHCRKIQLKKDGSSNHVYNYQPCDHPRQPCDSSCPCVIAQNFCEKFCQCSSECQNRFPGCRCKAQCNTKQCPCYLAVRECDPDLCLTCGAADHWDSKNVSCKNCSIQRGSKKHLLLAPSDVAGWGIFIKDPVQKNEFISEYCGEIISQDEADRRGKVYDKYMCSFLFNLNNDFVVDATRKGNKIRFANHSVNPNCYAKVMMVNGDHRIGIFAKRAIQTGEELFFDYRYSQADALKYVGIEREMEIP
T1 sequence (O75530 whole entry partner): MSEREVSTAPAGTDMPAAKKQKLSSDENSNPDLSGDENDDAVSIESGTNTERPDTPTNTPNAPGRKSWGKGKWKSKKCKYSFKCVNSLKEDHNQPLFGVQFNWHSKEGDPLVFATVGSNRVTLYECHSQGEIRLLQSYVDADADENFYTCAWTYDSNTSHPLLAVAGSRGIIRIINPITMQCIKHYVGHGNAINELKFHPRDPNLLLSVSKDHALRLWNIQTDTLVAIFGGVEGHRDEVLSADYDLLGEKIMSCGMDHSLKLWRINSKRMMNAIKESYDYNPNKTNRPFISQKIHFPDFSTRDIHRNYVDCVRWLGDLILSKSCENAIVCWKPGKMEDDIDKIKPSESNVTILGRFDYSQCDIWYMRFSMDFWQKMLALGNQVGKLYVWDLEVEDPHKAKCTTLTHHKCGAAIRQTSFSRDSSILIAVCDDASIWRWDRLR
T1 sequence (Q15022 whole entry partner): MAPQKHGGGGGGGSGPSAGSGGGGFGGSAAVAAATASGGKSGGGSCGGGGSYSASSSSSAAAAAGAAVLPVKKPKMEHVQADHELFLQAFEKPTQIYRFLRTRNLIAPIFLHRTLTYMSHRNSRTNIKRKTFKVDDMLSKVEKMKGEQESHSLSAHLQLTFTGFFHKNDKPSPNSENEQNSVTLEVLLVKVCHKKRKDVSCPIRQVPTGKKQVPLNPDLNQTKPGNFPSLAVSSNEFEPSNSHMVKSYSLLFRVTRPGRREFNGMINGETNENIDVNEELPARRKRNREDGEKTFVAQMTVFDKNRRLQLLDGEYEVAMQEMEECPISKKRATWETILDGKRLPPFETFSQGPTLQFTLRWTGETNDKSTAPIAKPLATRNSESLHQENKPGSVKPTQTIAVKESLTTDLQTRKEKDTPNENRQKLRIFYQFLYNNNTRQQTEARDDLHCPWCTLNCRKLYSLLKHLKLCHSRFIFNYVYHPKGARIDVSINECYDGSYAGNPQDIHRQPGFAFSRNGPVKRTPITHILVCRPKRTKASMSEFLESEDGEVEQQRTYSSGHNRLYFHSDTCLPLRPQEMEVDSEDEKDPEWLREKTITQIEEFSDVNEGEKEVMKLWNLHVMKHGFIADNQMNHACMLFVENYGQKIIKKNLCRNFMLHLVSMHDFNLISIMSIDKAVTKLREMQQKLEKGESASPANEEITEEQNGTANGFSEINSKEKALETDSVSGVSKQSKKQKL
T1 sequence (Q09028 whole entry partner): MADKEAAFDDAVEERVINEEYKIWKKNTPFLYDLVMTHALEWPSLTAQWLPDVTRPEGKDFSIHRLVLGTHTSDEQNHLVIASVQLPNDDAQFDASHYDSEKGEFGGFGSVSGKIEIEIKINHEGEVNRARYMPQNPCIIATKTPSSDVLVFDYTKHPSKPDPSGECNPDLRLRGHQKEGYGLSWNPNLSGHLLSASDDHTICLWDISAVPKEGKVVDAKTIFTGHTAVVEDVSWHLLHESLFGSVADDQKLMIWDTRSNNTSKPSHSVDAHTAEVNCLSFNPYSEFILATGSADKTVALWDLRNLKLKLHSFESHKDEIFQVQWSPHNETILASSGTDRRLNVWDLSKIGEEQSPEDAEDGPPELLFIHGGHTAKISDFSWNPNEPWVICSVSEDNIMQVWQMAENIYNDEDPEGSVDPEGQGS
T1 sequence (Q6ZN18 whole entry partner): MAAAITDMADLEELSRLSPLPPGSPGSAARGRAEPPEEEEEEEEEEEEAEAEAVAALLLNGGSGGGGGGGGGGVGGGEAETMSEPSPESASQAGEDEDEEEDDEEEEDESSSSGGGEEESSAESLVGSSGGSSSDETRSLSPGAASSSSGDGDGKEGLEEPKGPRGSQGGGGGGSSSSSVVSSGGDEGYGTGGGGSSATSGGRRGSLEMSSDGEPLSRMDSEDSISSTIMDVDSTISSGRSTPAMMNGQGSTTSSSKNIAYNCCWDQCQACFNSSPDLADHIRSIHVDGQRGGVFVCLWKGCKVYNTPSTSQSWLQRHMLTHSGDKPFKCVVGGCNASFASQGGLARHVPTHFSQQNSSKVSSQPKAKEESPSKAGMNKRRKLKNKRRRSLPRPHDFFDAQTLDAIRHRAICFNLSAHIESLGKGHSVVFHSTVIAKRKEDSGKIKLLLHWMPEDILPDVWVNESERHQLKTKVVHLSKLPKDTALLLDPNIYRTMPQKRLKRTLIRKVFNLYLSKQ
As to the kind of experiment: EZH2 pep BSA Brij 4.0 LowE (IC50): 3H-SAM incorporation into biotinylated H3 peptide. In kind it is biochemical. To be noted: 20 pM PRC2 wt EZH2, 0.9 μM 3H-SAM, biotinylated H3 peptide substrate, 2 μM H3K27me3 activating peptide. The procedure:
EZH2 Pep BSA Brij 4.0 LowE (IC50):
Compound potencies were assessed through incorporation of ^3H-SAM into a biotinylated H3 peptide. Specifically, PRC2 containing wt EZH2 (20 pM), (pentameric complexes prepared in-house) was pre-incubated with ^3H-SAM (0.9 μM), 2 μM H3K27me3 activating peptide (H2N-RKQLATKAAR(Kme3)SAPATGGVKKP-amide) and compounds (as 10 point duplicate dose response titrations in DMSO, final assay 0.8% DMSO (v/v)) for 120 min in 50 mM Tris (pH 8.5), 1 mM DTT, 0.07 mM Brij-35, 0.1% BSA, and 0.8% DMSO in a total volume of 12.5 μl. Reaction was initiated with biotinylated H3 substrate peptide (H2N-RKQLATKAAR(Kme1)SAPATGGVKKP-NTPEGBiot) as a 2 μM stock in 12.5 μl of buffer and allowed to react at room temperature for 5 h. Quenching was accomplished by addition of 20 μl of STOP solution (50 mM Tris (pH 8.5), 200 mM EDTA, 2 mM SAH). 35 μl of the quenched solution was transferred to Streptavidin Flashplates, incubated overnight, washed, and read in a TopCount Reader (Perkin Elmer). IC50s were calculated relative to fully active and no enzyme control wells using non-linear least square four parameter fits.

Where [1] appears, read: EZH2 pep BSA Brij 4.0 LowE (IC50).
Setting [2] is: read-out: EZH2 pep BSA Brij 4.0 LowE (IC50).

Here are results for 21 compounds from patent publication US20180037568A1, “MODULATORS OF METHYL MODIFYING ENZYMES, COMPOSITIONS AND USES THEREOF” (Constellation Pharmaceuticals, Inc., priority 2015, published 2018).

Read-outs that look alike come from different tables or passages of the source.

As a reminder, the EC50 is the concentration that produces a half-maximal response. Usually IC50 stands for the concentration needed to halve the response being measured. `COc1cc(C)[nH]c(=O)c1CNC(=O)c1c(C)n(C(C)C2CCN(C)C(CO)C2)c2ccccc12` (stereo not drawn) [Compound 30, 1-(1-(2-(hydroxymethyl)-1-methylpiperidin-4-yl)ethyl)-N-((4-methoxy-6-methyl-2-oxo-1,2-dihydropyridin-3-yl)methyl)-2-methyl-1H-indole-3-carboxamide]: in the assay on H3K27me3 mark (Homo sapiens, HeLa, 72 h), the EC50 was greater than 2000 nM. For the same compound, the IC50 against PRC2 containing wt EZH2 (setting [1]) is less than 100 nM.
For the compound `COc1cc(C)[nH]c(=O)c1CNC(=O)c1c(C)n(C(C)C2CCN(CC(F)F)C(C)C2)c2ccccc12` (stereo not drawn) [Compound 44], the EC50 in the assay on H3K27me3 mark (72 hrs) is greater than 2000 nM. Besides, at PRC2 containing wt EZH2 (setting [1]), the IC50 was less than 100 nM.
In the same order, the values of `COc1cc(C)[nH]c(=O)c1CNC(=O)c1c(C)n(C(C)C2CCN(CC(F)(F)F)C(C)C2)c2ccccc12` (stereo not drawn) [Compound 45] are less than 400 nM and less than 100 nM.
For `COc1cc(C)[nH]c(=O)c1CNC(=O)c1c(C)n(C(C)C2CCN(CC(F)F)C(C)C2)c2ccccc12` (stereo not drawn) [Compound 46], the EC50 with H3K27me3 mark (72 hrs) was less than 400 nM. The IC50 at PRC2 containing wt EZH2 (setting [2]) is less than 100 nM.
With `COc1cc(C)[nH]c(=O)c1CNC(=O)c1c(C)n(C(C)C2CCN(CC(F)(F)F)C(C)C2)c2ccccc12` (stereo not drawn) [Compound 47], the EC50 with H3K27me3 mark (72 hrs) was greater than 2000 nM. Moreover, the IC50 against PRC2 containing wt EZH2 (setting [1]) lay in the range of 100 to 1000 nM.
Regarding `COc1cc(C)[nH]c(=O)c1CNC(=O)c1c(C)n(C(C)C2CCNC(c3ccccc3F)C2)c2ccccc12` (stereo not drawn) [Compound 66], in the assay on H3K27me3 mark (Homo sapiens, HeLa, 72 h), the EC50 was in the range of 400 to 2000 nM. The IC50 on PRC2 containing wt EZH2 (setting [2]) was less than 100 nM.
As to `CCC1CC(C(C)n2c(C)c(C(=O)NCc3c(C)cc(C)[nH]c3=O)c3ccccc32)CCN1CC(F)F` (stereo not drawn) [Compound 68], the EC50 with H3K27me3 mark (72 hrs) was greater than 2000 nM. On PRC2 containing wt EZH2 (setting [2]), the 50% inhibitory concentration (IC50) was less than 100 nM.
In the same order, the values of `CCC1CC(C(C)n2c(C)c(C(=O)NCc3c(C)cc(C)[nH]c3=O)c3ccccc32)CCN1CC(F)F` (stereo not drawn) [Compound 69] are greater than 2000 nM and less than 100 nM.
Turning to `COc1cc(C)[nH]c(=O)c1CNC(=O)c1c(C)n(C(C)C2CCN(CC(C)(F)F)C(C)C2)c2ccccc12` (stereo not drawn) [Compound 70], in the assay with H3K27me3 mark (72 hrs), the EC50 lay within 400 to 2000 nM. Also, the IC50 against PRC2 containing wt EZH2 (setting [1]) was less than 100 nM.
For `CCC1CC(C(C)n2c(C)c(C(=O)NCc3c(C)cc(C)[nH]c3=O)c3ccccc32)CCN1CC(F)F` (stereo not drawn) [Compound 71], the EC50 in the assay on H3K27me3 mark (72 hrs) was less than 400 nM. Also, the IC50 at PRC2 containing wt EZH2 (setting [2]) was less than 100 nM.
With `COc1cc(C)[nH]c(=O)c1CNC(=O)c1c(C)n(C(C)C2CCN(CC(C)(F)F)C(C)C2)c2ccccc12` (stereo not drawn) [Compound 72], the EC50 in the assay on H3K27me3 mark (72 hrs) was greater than 2000 nM. Moreover, the IC50 against PRC2 containing wt EZH2 (setting [1]) was in the range of 100 to 1000 nM.
The like results for `COc1cc(C)[nH]c(=O)c1CNC(=O)c1c(C)n(C(C)C2CCN(CC(C)(F)F)C(C)C2)c2ccccc12` (stereo not drawn) [Compound 73] were, in that order, less than 400 nM and less than 100 nM.
Regarding `Cc1cc(C)c(CNC(=O)c2c(C)n(C(C)C3CCNC(CC(F)(F)F)C3)c3ccccc23)c(=O)[nH]1` (stereo not drawn) [Compound 84], the EC50 in the assay with H3K27me3 mark (Homo sapiens, HeLa, 72 h) was 400 to 2000 nM. Also, on PRC2 containing wt EZH2 (setting [2]), the IC50 is less than 100 nM.
As to `COc1cc(C)[nH]c(=O)c1CNC(=O)c1c(C)n(C(C)C2CCNC(CC(F)(F)F)C2)c2ccccc12` (stereo not drawn) [Compound 88], the EC50 in the assay with H3K27me3 mark (72 hrs) is greater than 2000 nM. Further, the IC50 against PRC2 containing wt EZH2 (setting [1]) is less than 100 nM.
In the same order, the values of `COc1cc(C)[nH]c(=O)c1CNC(=O)c1c(C)n(C(C)C2CCNC(CC(F)(F)F)C2)c2ccccc12` (stereo not drawn) [Compound 89] are 400 to 2000 nM and less than 100 nM.
In the same order, the values of `COc1cc(C)[nH]c(=O)c1CNC(=O)c1c(C)n(C(C)C2CCNC(CC(F)(F)F)C2)c2ccccc12` (stereo not drawn) [Compound 90] are 400 to 2000 nM and less than 100 nM.
In the case of `CCS(=O)(=O)N1CCC(C(C)n2c(C)c(C(=O)NCc3c(OC)cc(C)[nH]c3=O)c3ccccc32)CC1C` (stereo not drawn) [Compound 91], the EC50 in the assay with H3K27me3 mark (Homo sapiens, HeLa, 72 h) is greater than 2000 nM. This compound gave an IC50 at PRC2 containing wt EZH2 (setting [1]) of less than 100 nM.
Take `COc1cc(C)[nH]c(=O)c1CNC(=O)c1c(C)n(C(C)C2CCN(C)C(c3cccc(C(=O)O)c3)C2)c2ccccc12` (stereo not drawn) [Compound 92]: the concentration for a half-maximal effect (EC50) in the assay with H3K27me3 mark (72 hrs) fell in the range of 400 to 2000 nM. Also, the IC50 at PRC2 containing wt EZH2 (setting [2]) is less than 100 nM.
Take `COc1cc(C)[nH]c(=O)c1CNC(=O)c1c(C)n(C(C)C2CCN(C)C(c3cccc(C#N)c3)C2)c2ccccc12` (stereo not drawn) [Compound 95]: the EC50 in the assay with H3K27me3 mark (Homo sapiens, HeLa, 72 h) is 400 to 2000 nM. The compound also gave an IC50 on PRC2 containing wt EZH2 (setting [1]) of less than 100 nM.
For `COc1cc(C)[nH]c(=O)c1CNC(=O)c1c(C)n(C(C)C2CCN(C)C(c3cccc(C#N)c3)C2)c2ccccc12` (stereo not drawn) [Compound 96], the EC50 in the assay with H3K27me3 mark (72 hrs) is 400 to 2000 nM. In addition, at PRC2 containing wt EZH2 (setting [2]), the IC50 was less than 100 nM.
Consider `COc1cc(C)[nH]c(=O)c1CNC(=O)c1c(C)n(C(C)C2CCN(C)C(c3cccc(C(=O)O)c3)C2)c2ccccc12` (stereo not drawn) [Compound 97], for which the EC50 in the assay on H3K27me3 mark (72 hrs) is greater than 2000 nM. Further, the IC50 on PRC2 containing wt EZH2 (setting [1]) is less than 100 nM.
